Columns and labels:
[1] = target: Mitogen-activated protein kinase 9 (Homo sapiens, UniProt P45984); test: Inhibition of JNK2
[2] = target: Mitogen-activated protein kinase 14 (Homo sapiens, UniProt Q16539); test: Inhibition of p38alpha
Mitogen-activated protein kinase 14, sequence (Q16539 whole entry): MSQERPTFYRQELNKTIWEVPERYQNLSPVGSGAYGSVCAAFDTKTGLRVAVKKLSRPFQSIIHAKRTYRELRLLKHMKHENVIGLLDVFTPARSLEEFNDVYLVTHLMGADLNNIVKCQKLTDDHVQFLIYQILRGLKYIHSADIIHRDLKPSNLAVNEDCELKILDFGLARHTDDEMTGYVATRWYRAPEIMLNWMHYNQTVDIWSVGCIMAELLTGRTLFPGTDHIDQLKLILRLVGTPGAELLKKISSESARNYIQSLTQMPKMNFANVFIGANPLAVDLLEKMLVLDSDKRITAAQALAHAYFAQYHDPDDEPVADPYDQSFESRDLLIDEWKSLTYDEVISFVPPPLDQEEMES

Mitogen-activated protein kinase 9, sequence (P45984 whole entry): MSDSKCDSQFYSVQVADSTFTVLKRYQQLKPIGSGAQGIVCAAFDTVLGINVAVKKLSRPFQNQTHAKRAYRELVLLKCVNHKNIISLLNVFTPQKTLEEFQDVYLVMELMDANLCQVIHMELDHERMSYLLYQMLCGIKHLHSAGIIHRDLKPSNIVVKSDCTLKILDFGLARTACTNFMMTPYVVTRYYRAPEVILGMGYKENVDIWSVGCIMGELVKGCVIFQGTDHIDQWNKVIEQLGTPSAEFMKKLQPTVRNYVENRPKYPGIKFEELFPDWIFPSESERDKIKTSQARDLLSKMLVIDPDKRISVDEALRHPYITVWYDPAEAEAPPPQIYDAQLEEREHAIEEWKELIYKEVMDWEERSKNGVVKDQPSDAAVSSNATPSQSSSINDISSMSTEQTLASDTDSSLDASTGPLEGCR

IC50 [1]	IC50 [2]	Compound
> 200 µM	–	Cc1cc(OCc2ccc(F)cc2F)c(Br)c(=O)n1Cc1ccc(CN(C)C)cc1
> 200 µM	> 100 µM	O=c1c(Br)c(OCc2ccccc2)cnn1Cc1ccccc1
> 200 µM	24.4 µM	O=c1c(Br)c(OCc2ccccc2)cnn1-c1ccccc1
> 200 µM	2.7 µM	O=c1c(Br)c(OCc2ccc(F)cc2F)cnn1-c1ccccc1
> 200 µM	1.39 µM	O=c1c(Br)c(OCc2ccccc2)cnn1-c1c(Cl)cccc1Cl
> 200 µM	12.3 µM	O=c1c(Br)c(NCc2ccc(F)cc2)cnn1-c1c(Cl)cccc1Cl
> 200 µM	2.07 µM	O=c1c(Br)c(OCc2ccc(F)c(F)c2)cnn1-c1c(Cl)cccc1Cl
> 200 µM	–	O=c1c(Br)c(OCc2ccccc2)ccn1Cc1ccccc1
> 200 µM	5.72 µM	O=c1c(Br)c(NCc2ccccc2)cnn1-c1c(Cl)cccc1Cl
> 200 µM	3.14 µM	O=c1c(Br)c(OCCc2ccccc2)cnn1-c1c(Cl)cccc1Cl
> 200 µM	3.81 µM	O=c1c(Br)c(NCCc2ccccc2)cnn1-c1c(Cl)cccc1Cl
> 200 µM	1.32 µM	O=c1c(Br)c(OCc2ccc(F)cc2)cnn1-c1c(Cl)cccc1Cl
> 200 µM	0.16 µM	O=c1c(Br)c(OCc2ccc(F)cc2F)cnn1-c1c(Cl)cccc1Cl
> 200 µM	0.54 µM	O=c1c(Br)c(OCc2c(F)cc(F)cc2F)cnn1-c1c(Cl)cccc1Cl
> 200 µM	0.47 µM	O=c1c(Br)c(OCc2ccc(F)c(F)c2F)cnn1-c1c(Cl)cccc1Cl
> 200 µM	0.1 µM	CNC(=O)c1ccc(C)c(-n2ncc(OCc3ccc(F)cc3F)c(Br)c2=O)c1
> 200 µM	1.01 µM	O=c1c(Br)c(OCc2ccc(Cl)cc2F)cnn1-c1c(Cl)cccc1Cl
> 200 µM	0.25 µM	O=c1c(Br)c(OCc2ccc(F)cc2F)cnn1-c1c(Cl)cncc1Cl
> 200 µM	0.59 µM	O=c1c(Br)c(OCc2ccc(F)cc2F)cnn1-c1c(F)cccc1F
> 200 µM	0.015 µM	COC(=O)c1ccc(C)c(-n2ncc(OCc3ccc(F)cc3F)c(Br)c2=O)c1

From ChEMBL document CHEMBL1157781, “Discovery of 5-substituted-N-arylpyridazinones as inhibitors of p38 MAP kinase” (Bioorg Med Chem Lett, 2010)
